Results from patent US8183239B2, “Substituted piperazines and piperidines as modulators of the neuropeptide Y2 receptor” (Janssen Pharmaceutica NV, priority 2005, dated 2012).

target: T1, Y2 receptors (Homo sapiens, UniProt P49146); test: Radioligand binding assay ([125I]PYY, KAN-Ts cell membranes); details: Table 1, [125I]PYY 80 pM, average of results, read-out: IC50
T1 construct: endogenous in cells; host or cells: KAN-Ts cells (membranes)
T1 sequence (P49146 1-381): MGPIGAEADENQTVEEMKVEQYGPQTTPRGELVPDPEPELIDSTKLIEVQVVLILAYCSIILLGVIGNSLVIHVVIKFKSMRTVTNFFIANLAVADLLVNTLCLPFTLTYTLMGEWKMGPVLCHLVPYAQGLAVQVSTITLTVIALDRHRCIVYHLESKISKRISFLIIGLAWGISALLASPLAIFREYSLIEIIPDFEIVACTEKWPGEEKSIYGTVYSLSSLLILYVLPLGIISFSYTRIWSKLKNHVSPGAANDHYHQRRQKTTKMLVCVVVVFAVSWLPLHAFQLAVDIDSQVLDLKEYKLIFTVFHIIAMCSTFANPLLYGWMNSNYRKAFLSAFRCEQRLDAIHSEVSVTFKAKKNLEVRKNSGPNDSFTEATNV
How it was run: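 Membranes from KAN-Ts cells endogenously expressing Y2 incubated 1 h at rt with 80 pM [^125I]PYY ± test compound in HEPES buffer with NaCl, Ca^2+ and Mg^2+. Bound radioactivity collected by filtration; specific binding defined with […]. IC50 from sigmoidal fit, averaged over 3-8 duplicate experiments.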

SMILES	IC50 [nM]
CCN(CC)C(=O)C(c1ccccc1)C1CCN(c2ccc(NC(=O)c3ccccc3N)cc2F)CC1 (stereo not drawn) [Example 160, 2-Amino-N-{4-[4-(diethylcarbamoyl-phenyl-methyl)-piperidin-1-yl]-3-fluoro-phenyl}-benzamide]	260
CCN(CC)C(=O)C(c1ccccc1)N1CCN(c2ccc(NC(=O)CC3CC3)cc2F)CC1 (stereo not drawn) [Example 161, 2-{4-[4-(2-Cyclopropyl-acetylamino)-2-fluoro-phenyl]-piperazin-1-yl}-N,N-diethyl-2-phenyl-acetamide]	300
CCN(CC)C(=O)C(c1ccccc1)N1CCN(c2ccc(NC(=O)Cc3ccccc3OC)cc2F)CC1 (stereo not drawn) [Example 162, N,N-Diethyl-2-(4-{2-fluoro-4-[2-(2-methoxy-phenyl)-acetylamino]-phenyl}-piperazin-1-yl)-2-phenyl-acetamide]	300
CCN(CC)C(=O)C(c1ccccc1)C1CCN(c2ccc(NC(=O)c3cnoc3C)cc2F)CC1 (stereo not drawn) [Example 163, 5-Methyl-isoxazole-4-carboxylic acid {4-[4-(diethylcarbamoyl-phenyl-methyl)-piperidin-1-yl]-3-fluoro-phenyl}-amide]	300

same assay, conditions: Table 2, [125I]PYY 80 pM, average of results, read-out: IC50

SMILES	IC50 [nM]
CCCS(=O)(=O)Nc1ccc(N2CCN(C(C(=O)N(CC)CC)c3ccccc3)CC2)c(F)c1 (stereo not drawn) [Example 165, N,N-Diethyl-2-{4-[2-fluoro-4-(propane-1-sulfonylamino)-phenyl]-piperazin-1-yl}-2-phenyl-acetamide]	1100
CCCS(=O)(=O)N(c1ccc(N2CCN(C(C(=O)N(CC)CC)c3ccccc3)CC2)c(F)c1)S(=O)(=O)CCC (stereo not drawn) [Example 166, N-{4-[4-(Diethylcarbamoyl-phenyl-methyl)-piperazin-1-yl]-3-fluoro-phenyl}-N-dipropanesulfonanilide]	560
CCN(CC)C(=O)C(c1ccccc1)N1CCN(c2ccc(C(=O)C3CCCC3)cc2F)CC1 (stereo not drawn) [Example 167, 2-[4-(4-Cyclopentanecarbonyl-2-fluoro-phenyl)-piperazin-1-yl]-N,N-diethyl-2-phenyl-acetamide]	3300
CCN(CC)C(=O)C(c1ccccc1)N1CCN(c2ccc(/C(=N/O)C3CCCC3)cc2F)CC1 (stereo not drawn) [Example 168, 2-{4-[4-(Cyclopentyl-hydroxyimino-methyl)-2-fluoro-phenyl]-piperazin-1-yl}-N,N-diethyl-2-phenyl-acetamide]	740
CCC(C)C(=O)c1ccc(N2CCN(C(C(=O)N(CC)CC)c3ccccc3)CC2)c(F)c1 (stereo not drawn) [Example 169, N,N-Diethyl-2-{4-[2-fluoro-4-(2-methyl-butyryl)-phenyl]-piperazin-1-yl}-2-phenyl-acetamide]	410
CCC(CC)C(=O)NCc1ccc(N2CCN(C(C(=O)N(CC)CC)c3ccccc3)CC2)c(F)c1 (stereo not drawn) [Example 170, N-{4-[4-(Diethylcarbamoyl-phenyl-methyl)-piperazin-1-yl]-3-fluoro-benzyl}-2-ethyl-butyramide]	260
CCOC(=O)C(c1ccccc1)N1CCN(c2ccc(N3CCN(C(CC)CC)S3(=O)=O)cc2F)CC1 (stereo not drawn) [Example 171, {4-[2-Fluoro-4-(5-(3-pentyl)-1,2,5-thiadiazolidine-2-yl,1,1-dioxide)-phenyl]-piperazin-1-yl}-phenyl-acetic acid ethyl ester]	270
CCCNS(=O)(=O)N(CCC)c1ccc(N2CCN(C(C(=O)N(CC)CC)c3ccccc3)CC2)c(F)c1 (stereo not drawn) [Example 172, 2-{4-[4-(1,3-Dipropyl-sulfamoyl)-2-fluoro-phenyl]-piperazin-1-yl}-N,N-diethyl-2-phenyl-acetamide]	520
CCN(CC)C(=O)C(c1ccccc1)N1CCN(c2ccc(N3CCN(C(=O)OC)S3(=O)=O)cc2F)CC1 (stereo not drawn) [Example 173, 3-{4-[4-(Diethylcarbamoyl-phenyl-methyl)-piperazin-1-yl]-3-fluoro-phenyl}-1,2,5-thiadiazolidine, 1,1-dioxide-2-carboxylic acid methyl ester]	590
CCN(CC)C(=O)C(c1ccccc1)N1CCN(c2ccc(N3CCNS3(=O)=O)cc2F)CC1 (stereo not drawn) [Example 174, N,N-Diethyl-2-{4-[2-fluoro-4-(1,2,5-thiadiazolidine-2-yl,1,1-dioxide)-phenyl]-piperazin-1-yl}-2-phenyl-acetamide]	4000
CCOC(=O)C(c1ccccc1)N1CCN(c2ccc(N3CCN(C(=O)OC)S3(=O)=O)cc2F)CC1 (stereo not drawn) [Example 175, 3-{4-[4-(Ethoxycarbonyl-phenyl-methyl)-piperazin-1-yl]-3-fluoro-phenyl}-1,2,5-thiadiazolidine, 1,1-dioxide-2-carboxylic acid methyl ester]	≥ 10000
CCOC(=O)C(c1ccccc1)N1CCN(c2ccc(N3CCNS3(=O)=O)cc2F)CC1 (stereo not drawn) [Example 176, {4-[2-Fluoro-4-(1,2,5-Thiadiazolidine-2-yl,1,1-dioxide)-phenyl]-piperazin-1-yl}-phenyl-acetic acid ethyl ester]	≥ 10000
CCOC(=O)C(c1ccccc1)N1CCN(c2ccc(N3CCN(C4CCN(CC)C4)S3(=O)=O)cc2F)CC1 (stereo not drawn) [Example 177, {4-[2-Fluoro-4-(5-(1-Ethyl-pyrrolidin-3-yl)-1,2,5-thiadiazolidine-2-yl, 1,1-dioxide)-phenyl]-piperazin-1-yl}-phenyl-acetic acid ethyl ester]	≥ 10000
CCOC(=O)C(c1ccccc1)N1CCN(c2ccc(N3CCN(C4CCOC4)S3(=O)=O)cc2F)CC1 (stereo not drawn) [Example 178, {4-[2-Fluoro-4-(5-(tetrahydro-furan-3-yl)-1,2,5-thiadiazolidine-2-yl, 1,1-dioxide)-phenyl]-piperazin-1-yl}-phenyl-acetic acid ethyl ester]	2900
CCCN1CCN(c2ccc(N3CCN(C(C(=O)OCC)c4ccccc4)CC3)c(F)c2)S1(=O)=O (stereo not drawn) [Example 179, {4-[2-Fluoro-4-(5-propyl-1,2,5-thiadiazolidine-2-yl,1,1-dioxide)-phenyl]-piperazin-1-yl}-phenyl-acetic acid ethyl ester]	540
CCOC(=O)C(c1ccccc1)N1CCN(c2ccc(N3CCN(C4CCCC4)S3(=O)=O)cc2F)CC1 (stereo not drawn) [Example 180, {4-[2-Fluoro-4-(5-cyclopentyl-1,2,5-thiadiazolidine-2-yl,1,1-dioxide)-phenyl]-piperazin-1-yl}-phenyl-acetic acid ethyl ester]	770
CCN(CC)C(=O)C(c1ccccc1)N1CC=C(c2ccc(C(=O)OC)cc2F)CC1 (stereo not drawn) [Example 181, 4-[1-(Diethylcarbamoyl-phenyl-methyl)-1,2,3,6-tetrahydro-pyridin-4-yl]-3-fluoro-benzoic acid methyl ester]	9300
CCC(CC)C(=O)Nc1cnc(N2CCN(C(C(=O)N(CC)CC)c3ccccc3)CC2)nc1 (stereo not drawn) [Example 182, N-{2-[4-(Diethylcarbamoyl-phenyl-methyl)-piperazin-1-yl]-pyrimidin-5-yl}-2-ethyl-butyramide]	1650
CCC(CC)C(=O)Nc1ccc(N2CCN(C(C(=O)N(CC)CC)c3ccccc3)CC2)nn1 (stereo not drawn) [Example 183, N-{6-[4-(Diethylcarbamoyl-phenyl-methyl)-piperazin-1-yl]-pyridazin-3-yl}-2-ethyl-butyramide]	4500
CCC(CC)C(=O)Nc1ccc(N2CCN(C(C(=O)NN)c3ccccc3)CC2)c(F)c1 (stereo not drawn) [Example 184, 2-Ethyl-N-{3-fluoro-4-[4-(hydrazinocarbonyl-phenyl-methyl)-piperazin-1-yl]-phenyl}-butyramide]	870
